Results taken from patent publication US6143730A, “Preparation and use of sulfated oligosaccharides” (priority 1995, dated 2000).
Values after ≈ are worked out from the molar mass of the structure shown. Read-outs that look alike come from different tables or passages of the source. Values belong to the molecule of their own block, whether it stands above or below them.

Assays:
bFGF = bFGF (Homo sapiens, UniProt P09038); test: Binding of BALB/c 3T3 cells (cell surface heparan sulfate) to immobilised bFGF; format: cell-based; details: binding of mouse 3T3 cells to immobilised bFGF
bFGF, sequence (P09038 134-288, species assumed): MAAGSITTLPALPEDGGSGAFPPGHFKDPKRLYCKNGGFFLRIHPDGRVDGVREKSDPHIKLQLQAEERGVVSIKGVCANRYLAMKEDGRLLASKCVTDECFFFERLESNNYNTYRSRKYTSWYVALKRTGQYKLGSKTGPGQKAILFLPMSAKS
Protocol: (§1) The FGF-heparan sulfate interaction was assessed, as reported earlier (39), by measuring the binding of BALB/c 3T3 fibroblasts to PVC immobilised FGFs, cell binding being detected by Rose Bengal staining of adherent cells. Sulfated oligosaccharides were examined for their ability to inhibit this cell adhesion process, which is totally dependent upon heparan sulfate structures on the surface of BALB/c 3T3 cells (39).

[1] = target: T1, human platelet heparanase (Homo sapiens, UniProt Q9Y251); test: Heparanase inhibition assay; format: biochemical
T1 construct: from tissue; host or cells: human platelets
T1 sequence (Q9Y251 158-543 limits assumed): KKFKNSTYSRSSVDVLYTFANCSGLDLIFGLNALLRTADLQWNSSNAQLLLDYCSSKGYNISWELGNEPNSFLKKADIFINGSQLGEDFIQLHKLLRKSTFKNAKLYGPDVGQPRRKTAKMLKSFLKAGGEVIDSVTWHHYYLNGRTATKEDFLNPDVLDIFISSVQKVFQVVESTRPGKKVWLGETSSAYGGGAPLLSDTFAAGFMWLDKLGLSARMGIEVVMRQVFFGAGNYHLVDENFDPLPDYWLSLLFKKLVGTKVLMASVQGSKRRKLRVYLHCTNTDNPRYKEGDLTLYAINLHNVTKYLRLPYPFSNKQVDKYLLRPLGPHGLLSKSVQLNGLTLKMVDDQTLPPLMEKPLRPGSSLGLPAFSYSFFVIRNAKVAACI
T1 sequence (Q9Y251 36-109 limits assumed): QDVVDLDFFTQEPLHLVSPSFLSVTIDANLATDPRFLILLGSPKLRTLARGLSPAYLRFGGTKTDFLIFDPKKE
Source text: The heparanase assay is based on the observation that the serum protein, histidine-rich glycoprotein (HRG), binds to heparan sulfate chains and masks the heparanase cleavage site. Based on the finding that heparanase-cleaved heparan sulfate fails to bind to HRG a heparanase assay has been developed which involves digesting ^3 H-labelled heparan sulfate chains with heparanase, binding the digested heparan sulfate to HRG coupled beads and measuring unbound ^3 H label. With increasing digestion of the substrate an increasing amount of ^3 H label fails to bind to the HRG beads.
Initially, bovine intestinal heparan sulfate (Mr av 32 kDa) was partially de-N-acetylated by heating in hydrazine hydrate (36) and re-acetylated with ^3 H-acetic anhydride.
Activity was determined by the rate of production of smaller (approx 5 kDa) heparan sulfate fragments that were not bound following passage of the incubation mixture (100 μl) through HRG-Sepharose mini-columns (200 μl packed beads) which retained the larger uncleaved and partially cleaved substrate.
In heparanase-inhibition assays, different concentrations of inhibitor were added to the enzyme prior to addition of radiolabelled substrate, the inhibitor being retained in the reaction mixture throughout the incubation period.

aFGF = aFGF (Homo sapiens, UniProt P05230); test: Binding of BALB/c 3T3 cells (cell surface heparan sulfate) to immobilised aFGF; format: cell-based; details: binding of mouse 3T3 cells to immobilised aFGF
aFGF, sequence (P05230 whole entry, species assumed): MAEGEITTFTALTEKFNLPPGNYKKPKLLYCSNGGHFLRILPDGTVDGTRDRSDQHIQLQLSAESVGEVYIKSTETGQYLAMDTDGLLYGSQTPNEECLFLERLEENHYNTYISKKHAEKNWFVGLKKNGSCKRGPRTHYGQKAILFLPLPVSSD
Protocol: as §1

[2] = test system: thrombin time and activated partial thromboplastin time; test: Anticoagulant activity (thrombin time and activated partial thromboplastin time); format: biochemical; details: percentage of heparin activity (100%)
Protocol: The anticoagulant activity of each sulfated oligosaccharide was assessed as previously described (35), using both thrombin time and activated partial thromboplastin time procedures. The activity of each preparation was compared with a heparin control and anticoagulant activity expressed as a percentage of heparin activity.

air pouch inflammation = test: Air pouch inflammation model (thioglycollate); format: in vivo, mouse; details: 25 mg/kg subcut., ± SEM
Protocol: The assay is based on a previously reported procedure (40). Subcutaneous air pouches were formed on the backs of mice by injecting 5 ml of sterile air below the skin of a shaved area between the scapulae of an anaesthetised mouse on day 1. On day 3 the pouch was reinflated by the injection of 2.5 ml of air. Inflammation was induced on day 6 by injecting directly into the pouch 1.0 ml of 56 mg/ml thioglycollate or 1.0 ml of saline as a control. Approximately 17-20 hrs after thioglycollate injection the animals were killed by cervical dislocation and the cellular contents of the pouch retrieved by the injection of 2.5 ml of ice cold PBS/5% FCS. Sulfated oligosaccharides were tested for their ability to inhibit the inflammatory reaction by being injected subcut. (50 μl in PBS) in a separate site immediately following administration of the thioglycollate. Prednisolone was used as a control anti-inflammatory drug, being injected subcut. in oil at 25 mg/kg. The total cellular contents of each pouch was determined using a Coulter Counter and different leukocyte subpopulations were assessed by immunofluorescent flow cytometry.

[3] = test system: rat mammary adenocarcinoma 13762 MAT; test: Metastasis assay (lung metastases of 13762 MAT); format: in vivo; details: for Metastasis (% Control): 13762 MAT cells i.v., 2 mg/rat at time of tumour cell injection, lungs, ± SEM (n = 4)
Protocol: The antimetastatic activity of the different sulfated oligosaccharides was assessed using the highly metastatic rat mammary adenocarcinoma 13762 MAT (35). The tumour cells were maintained in vitro as previously described (35). Female Fisher 344 rats, (10-13 weeks of age) were injected i.v. with 2×10^5 13762 MAT cells in 0.6 ml RPMI 1640 medium containing 10% FCS. At the time of tumour cell injection animals were also injected with 2 mg of sulfated oligosaccharide, similar results being obtained if the oligosaccharide was injected i.v., i.p. or subcut. Lungs were removed from the rats 13 days following tumour cell injection, placed in Bouin's solution for at least 24 hours and lung metastases then assessed under a dissecting microscope. The number of lung metastases in sulfated oligosaccharide treated rats was compared with that observed in control animals, with a minimum of four animals being included in each group.

[4] = test system: human angiogenesis in vitro; test: Human angiogenesis assay (placental blood vessel fragments in fibrin gel); format: cell-based; details: for inhibition of human angiogenesis: in words
Protocol: The assay method used is described in International Patent Application No. PCT/AU95/00105, the disclosure of which is incorporated herein by reference. Blood vessels, approx 1-2 mm in diameter and 2-5 cm in length, were excised from the surface of human placentas within 6 hours of birth. The vessels were placed in Hank's BSS containing […] of fungizone and cut into 1-2 mm length fragments using fine dissecting forceps and iridectomy scissors. Vessel fragments were freed of residual clots and soaked in Hank's BSS before use. Dissecting and sectioning of vessels was performed with the aid of a magnifier lamp (Maggylamp, Newbound, Balmain, NSW, Australia). Similar angiogenic responses were obtained from blood vessels of venular and arterial origin but, for each assay, vessel fragments from only one vessel were used.
Angiogenesis assays were performed in 24 or 48 well culture plates (Costar, Cambridge, Mass.). In the 24 well format, 30 μl of bovine thrombin (50 NIH units/ml in 0.15 M NaCl; Sigma Chemical Co., St Louis, Mo.) was added to each well followed by 1.0 ml/well of 3 mg/ml bovine fibrinogen (Sigma) in Medium 199. The thrombin and fibrinogen were mixed rapidly and one vessel fragment quickly placed in the centre of the well before clot formation. Usually fibrin gel formation occurred in 30 seconds and the vessel fragment was left suspended in the gel. Following gel formation 1.0 ml/well of Medium 199 supplemented with 20% foetal calf serum (FCS), 0.2 mg ε-amino caproic acid, L-glutamine and antibiotics (gentamycin and fungazone) was added. In the 48 well format all reagent volumes were halved. Vessels were cultured at 37° C. in a humidified environment for 14-21 days with the medium being changed twice weekly. Angiogenesis was quantified by computer based image analysis, using NIH Image software, of digital images of the cultures obtained with a Dycam digital camera mounted on an inverted microscope (Olympus, Tokyo, Japan).

[5] = target: T1, human platelet heparanase; details: reference 42; cited from earlier work
[6] = test system: human angiogenesis in vitro; details: reference 42; cited from earlier work

Molecule: Maltotriose
IC50 bFGF (bFGF; Table 2): 145 µg/mL
IC50 Heparanase ([1]; Table 2): 100 µg/mL
heparanase inhibitory activity ([1]; in words): weakly inhibitory
IC50 aFGF (aFGF; Table 2): 58.7 µg/mL
Anticoagulant Activity ([2]; Table 2): 0.8%

Molecule: C[C@]12C=CC(=O)C=C1CC[C@@H]1[C@@H]2[C@@H](O)C[C@@]2(C)[C@H]1CC[C@]2(O)C(=O)CO [Prednisolone]
Leukocyte Infiltrate in Air Pouch (% Control) (air pouch inflammation; Expt 1): 56 ± 14%
Leukocyte Infiltrate in Air Pouch (% Control) (air pouch inflammation; Expt 2): 44 ± 3%

Molecule: Mannotetraose
IC50 bFGF (bFGF; Table 3): 20 µg/mL
IC50 Heparanase ([1]; Table 3): 6 µg/mL
IC50 aFGF (aFGF; Table 3): 5 µg/mL
Anticoagulant Activity ([2]; Table 3): 0.4%

Molecule: O=S(=O)(O)OC[C@H]1O[C@H](O[C@H]2[C@H](OS(=O)(=O)O)[C@@H](OS(=O)(=O)O)[C@@H](O[C@H]3[C@H](OS(=O)(=O)O)[C@@H](OS(=O)(=O)O)[C@@H](O[C@H]4[C@H](OS(=O)(=O)O)[C@@H](OS(=O)(=O)O)C(OS(=O)(=O)O)O[C@@H]4COS(=O)(=O)O)O[C@@H]3COS(=O)(=O)O)O[C@@H]2COS(=O)(=O)O)[C@H](OS(=O)(=O)O)[C@@H](OS(=O)(=O)O)[C@@H]1O[C@H]1O[C@H](COS(=O)(=O)O)[C@@H](O[C@H]2O[C@H](COS(=O)(=O)O)[C@@H](OS(=O)(=O)O)[C@H](OS(=O)(=O)O)[C@H]2OS(=O)(=O)O)[C@H](OS(=O)(=O)O)[C@H]1OS(=O)(=O)O (some centres unmarked) [Maltohexaose 20/20]
IC50 (bFGF; read-out: IC50 bFGF, Table 2): 2080 nM
IC50 ([1]; read-out: IC50 Heparanase, Table 2): 1930 nM
IC50 (aFGF; read-out: IC50 aFGF, Table 2): 7600 nM
Anticoagulant Activity ([2]; Table 2): 3.3%

Molecule: Galactotetraose
IC50 bFGF (bFGF; Table 3): 9 µg/mL
IC50 Heparanase ([1]; Table 3): 3.5 µg/mL
Anticoagulant Activity ([2]; Table 3): 1.0%

Molecule: Cc1ccc(C(=O)Nc2ccc(S(=O)(=O)O)c3cc(S(=O)(=O)O)cc(S(=O)(=O)O)c23)cc1NC(=O)c1cccc(NC(=O)Nc2cccc(C(=O)Nc3cc(C(=O)Nc4ccc(S(=O)(=O)O)c5cc(S(=O)(=O)O)cc(S(=O)(=O)O)c45)ccc3C)c2)c1 [Suramin]
heparanase inhibitory activity [5]: moderate anti-angiogenic and heparanase inhibitory activity
anti-angiogenic activity [6]: moderate anti-angiogenic and heparanase inhibitory activity
Metastasis (% Control) [3]: 74 ± 8%
Anticoagulant Activity ([2]; Table 1): 0.1%
IC50 ([4]; Homo sapiens, Table 1, added at commencement of culture, read-out: 50% Inhibitory Concn, Angiogenesis): 50 µg/mL (≈ 38.5 µM)

Molecule: Heparin
Metastasis (% Control) [3]: 20 ± 3%
50% Inhibitory Concn, Heparanase ([1]; Table 1): 1 µg/mL
Anticoagulant Activity ([2]; Table 1): 100%
50% Inhibitory Concn, Angiogenesis ([4]; Table 1, added at commencement of culture): > 2000 µg/mL
inhibition of human angiogenesis [4]: little anti-angiogenic activity

Continued, in another order:

IC50 bFGF (bFGF; Table 2): 10 µg/mL
IC50 Heparanase ([1]; Table 2): 3 µg/mL
IC50 aFGF (aFGF; Table 2): 27 µg/mL
Molecule: Maltoheptaose
Anticoagulant Activity ([2]; Table 2): 3.9%

IC50 bFGF (bFGF; Table 3): 11 µg/mL
IC50 Heparanase ([1]; Table 3): 3 µg/mL
IC50 aFGF (aFGF; Table 3): 5 µg/mL
Molecule: Mannohexaose
Anticoagulant Activity ([2]; Table 3): 0.8%

IC50 bFGF (bFGF; Table 2): 37.5 µg/mL
IC50 Heparanase ([1]; Table 2): 4 µg/mL
IC50 aFGF (aFGF; Table 2): 27 µg/mL
Molecule: Maltopentaose
antimetastatic activity ([3]; in words): potent antimetastatic and anti-angiogenic activity
Anticoagulant Activity ([2]; Table 2): 3.2%
inhibition of human angiogenesis [4]: potent antimetastatic and anti-angiogenic activity

IC50 Heparanase ([1]; Table 3): 25 µg/mL
Molecule: Mannotriose
Anticoagulant Activity ([2]; Table 3): 0.3%
